Assay results taken from PMC3927586, “Protein kinase C-delta inactivation inhibits the proliferation and survival of cancer stem cells in culture and in vivo” (BMC Cancer, 2014).

How the values were obtained:
PrCSC cells [1] = assay: Cytotoxicity (LDH release) in prostate cancer stem cells; assay type: cell-based, human; conditions: dose-dependent, 24 and 72 hr
Experimental: LDH release was assessed by spectrophotometrically measuring the oxidation of NADH in both the cells and media. Cells were seeded in 24-well plates, and exposed to PKCδ inhibitors or vehicle. After different times of exposure, cytotoxicity was quantified by a standard measurement of LDH release with the use of the LDH assay kit (Roche Molecular Biochemicals) according to the manufacturer’s protocol. Briefly, total culture medium was cleared by centrifugation. For assay of released LDH, supernatants were collected. To assess total LDH in cells, Triton X-100 was added to vehicle (control) wells to release intracellular LDH. LDH assay reagent was added to lysates or supernatants and incubated for up to 30 min at room temperature in dark, the reaction was stopped, and the absorbance was measured at 490 nm. The percentage of LDH release was then calculated as the LDH in the supernatants as a fraction of the total LDH.
Figure 2 Effects of PKCδ inhibitors on human cancer stem cells. (A) PCSC and PrCSC cells at 80% confluence were exposed to rottlerin. DMSO served as vehicle control (Vehicle). After 24 and 72 hr of exposure, cell mass was evaluated by MTT assay. Control values were normalized to 100%. p values for comparison between treatments reached significance at 24 hr of exposure (p≤0.01) for both cell types, and remained significant at 72 hr. (B) PCSC and PrCSC cells at 50% confluence were exposed to rottlerin. Cytotoxicity was evaluated by LDH-release assay. […] Viable cells were enumerated and re-plated in media without inhibitor, and colony numbers were quantitated 15 days later. p values for comparison of treatment effects on clonogenic capacity reached significance (p=0.005) at 18 hr of exposure and remained significant for all subsequent exposure times. […] Cytotoxicity was evaluated by LDH-release assay, as in panel B. p values for comparison between treatment effects on LDH release reached significance at 24 hr of exposure to 2.5 μM KAM1 for PCSC cells and at 10 μM for PrCSC (p≤0.01), and remained significant at 72 hr for all concentrations of KAM1. […]

PrCSC cells [2] = assay: Cell proliferation (MTT) of prostate cancer stem cells; assay type: cell-based, human; conditions: as early as 24 hr after exposure
Experimental: Cell proliferation was assessed using an MTT [3-(4,5-dimethylthiazol-2-yl)-2,5-diphenyltetrazolium bromide] assay (Roche, Mannheim, Germany). The number of viable cells growing in a single well on a 96-well microtiter plate was estimated by adding 10 μl of MTT solution (5 mg/ml in phosphate-buffered saline [PBS]). After 4 h of incubation at 37°C, the stain was diluted with 100 μl of dimethyl sulfoxide. The optical densities were quantified at a test wavelength of 570 nm and a reference wavelength of 690 nm on a multiwell spectrophotometer. In some assays, MTS was used as substrate (Promega, Madison, WI), and the absorbance of the product was monitored at 490 nm. Cell enumeration was carried out using a hemocytometer, and viable cells identified by trypan blue exclusion.
Figure 2 Effects of PKCδ inhibitors on human cancer stem cells. (A) PCSC and PrCSC cells at 80% confluence were exposed to rottlerin. DMSO served as vehicle control (Vehicle). After 24 and 72 hr of exposure, cell mass was evaluated by MTT assay. […] Cytotoxicity was evaluated by LDH-release assay. […] Viable cells were enumerated and re-plated in media without inhibitor, and colony numbers were quantitated 15 days later. p values for comparison of treatment effects on clonogenic capacity reached significance (p=0.005) at 18 hr of exposure and remained significant for all subsequent exposure times. […]

[3] = test system: human breast cancer stem cell (BCSC) xenografts; assay: Breast cancer stem cell xenograft model; assay type: in vivo, mice; conditions: rottlerin 5,000 μg/kg intraperitoneally, 15 days
Experimental: These studies were performed with the approval of the Institutional Animal Care and Use Committee of Boston University. Breast cancer stem cells (2 × 10^5) grown from a metastatic tumor were suspended in human breast cancer stem cell complete growth media (Celprogen, San Pedro, CA) and injected subcutaneous into the right flank of female J:NU mice (The Jackson Laboratory, ME) under anesthesia. After palpable tumors developed, the mice were divided into two groups of animals. The control group received daily intraperitoneal injections of vehicle (DMSO) while the treatment group received daily intraperitoneal injections of a PKCδ inhibitor (rottlerin 5,000 μg/kg) for 15 days. The length and width of tumors were measured with a vernier caliper and tumor volumes were calculated. Survival was calculated as the day tumors reached the maximum size allowed by the protocol (2 cm diameter).
Figure 6 Effects of PKCδ inhibitor on tumor growth and survival in a xenograft human breast cancer stem cell model. Breast cancer stem cell xenografts were established and animals were treated with vehicle or rottlerin for 15 days, as described in Methods. (A) Tumor volumes plotted over time, until tumors in all the control animals reached the maximum volume allowed by the protocol (approximately 15 days). […]

## CC(=O)c1c(O)c(C)c(O)c(Cc2c(O)c3c(c(C(=O)/C=C/c4ccccc4)c2O)OC(C)(C)C=C3)c1O [rottlerin, Rottlerin, reference compound]
PrCSC cells [1]
  cytotoxicity in PrCSC (LDH release): induced cytotoxicity
PrCSC cells [2]
  effect on proliferation of PrCSC: significant dose-dependent inhibition of proliferation
[3]; monitoring continued after cessation
  survival / tumor-free status after treatment: some animals remaining tumor-free even at day 300
[3]; nude (J:NU) mice, vs vehicle
  effect on growth of BCSC xenografts: effectively inhibited the growth of the xenografts, even producing tumor regression
